Experiments:
[1] = molecular target: human Maxi K channel (BK channel), KCNMA1 (KCa1.1) and beta1 (KCNMB1) subunits (Homo sapiens, UniProt Q12791)
Procedure: In Vitro Assay: Agonistic Activity at the Human Maxi K Channel (BK Channel)
A CHO K1 cell line was stably transfected with the KCNMA1 (KCa1.1, U11058) and betal (KCNMB1) subunits of the human Maxi K channel (Ponte et al, Molecular Pharmacology 2012, 81(4), 567-577).
Cells were seeded in microtiter plates (black 384-well MTP, clear bottom) in a concentration of 20,000 cells/well in 25 μl medium and cultured for 20 to 24 hours at 37° C. and 5% CO2. After incubation, 25 μl of FMP-dye Blue-Tyrode's was added to each well and incubated at room temperature for 30 min. Ten minutes after addition of 12.5 μl compound solution, the plates are transferred to the FLIPR for measurement.
For the membrane potential measurements, plates were placed in the FLIPR Penta (Molecular Devices). The baseline measurement of the fluorescence was stared for 20 sec (Exc. 510-545 nm, Emm. 565-625 nm). Potential channel opening measurement was started by addition of 25 μl KCl-Tyrode (final assay concentration of the KCl-Tyrode: 70 mM KCl, 2 mM CaCl2, 1 mM MgCl2, 0.8 mM NaH2PO4, 5 mM Glucose, 28 mM Hepes, pH 7.4, including the voltage sensitive dye). The complete measurement takes 150 s.
EC50 values were determined in triplicate utilizing compound dilution series. The data were determined at least in two independent tests. The data were proceeded by using the ActivityBase XE Runner software (IDBS) for curve fitting and calculation of the half-maximal effective concentration.

[2] = tested on: D. immitis microfilaria (L1); assay: In vitro assay Dirofilaria immitis L1, motility of microfilaria; assay type: cell-based; conditions: 72 h, read-out: EC50 value, Dirofilaria immitis L1, reduction in motility vs DMSO, incubation 3 days
[3] = tested on: A. viteae microfilaria (L1); assay: In vitro assay Acanthocheilonema viteae L1, motility of microfilaria; conditions: 72 h, read-out: EC50 value, Acanthocheilonema viteae L1, reduction in motility vs DMSO, incubation 3 days
Procedure: Approximately 500 A. viteae microfilaria were added to a microtiter plate containing a nutrient medium and the test compound in DMSO at varying concentrations. After incubation for 3 days, activity was evaluated as reduction in motility as compared to DMSO as negative control.
Compounds were tested in duplicates. Based on the concentration response curves EC50 values were calculated.

Haemonchus contortus = assay: In vivo efficacy against Haemonchus contortus in jirds; conditions: in Meriones unguiculatus, 72 h, read-out: reduction of the Haemonchus contortus count
Procedure: In Vivo Assay: Efficacy Against Haemonchus contortus in Jirds
The jirds were orally infected with approximately 1500 third-stage larvae of Haemonchus contortus. Ten days after infection, the jirds in the treatment groups were treated once either orally or subcutaneously with compounds at a dose of 10 mg per kg bodyweight. For treatment, compounds were dissolved in a mixture of 10% Transcutol, 10% Cremophor EL and 80% physiological sodium chloride solution. Three days after treatment, the jirds were necropsied, and the larvae burden in the stomach was determined. The efficacy was defined as the reduction of the mean larvae count in the infected jirds of the treatment group in comparison to the infected jirds in an untreated control group (negative control).

Sequence of human Maxi K channel (BK channel), KCNMA1 (KCa1.1) and beta1 (KCNMB1) subunits (Q12791 1-1178 isoform Q12791-5): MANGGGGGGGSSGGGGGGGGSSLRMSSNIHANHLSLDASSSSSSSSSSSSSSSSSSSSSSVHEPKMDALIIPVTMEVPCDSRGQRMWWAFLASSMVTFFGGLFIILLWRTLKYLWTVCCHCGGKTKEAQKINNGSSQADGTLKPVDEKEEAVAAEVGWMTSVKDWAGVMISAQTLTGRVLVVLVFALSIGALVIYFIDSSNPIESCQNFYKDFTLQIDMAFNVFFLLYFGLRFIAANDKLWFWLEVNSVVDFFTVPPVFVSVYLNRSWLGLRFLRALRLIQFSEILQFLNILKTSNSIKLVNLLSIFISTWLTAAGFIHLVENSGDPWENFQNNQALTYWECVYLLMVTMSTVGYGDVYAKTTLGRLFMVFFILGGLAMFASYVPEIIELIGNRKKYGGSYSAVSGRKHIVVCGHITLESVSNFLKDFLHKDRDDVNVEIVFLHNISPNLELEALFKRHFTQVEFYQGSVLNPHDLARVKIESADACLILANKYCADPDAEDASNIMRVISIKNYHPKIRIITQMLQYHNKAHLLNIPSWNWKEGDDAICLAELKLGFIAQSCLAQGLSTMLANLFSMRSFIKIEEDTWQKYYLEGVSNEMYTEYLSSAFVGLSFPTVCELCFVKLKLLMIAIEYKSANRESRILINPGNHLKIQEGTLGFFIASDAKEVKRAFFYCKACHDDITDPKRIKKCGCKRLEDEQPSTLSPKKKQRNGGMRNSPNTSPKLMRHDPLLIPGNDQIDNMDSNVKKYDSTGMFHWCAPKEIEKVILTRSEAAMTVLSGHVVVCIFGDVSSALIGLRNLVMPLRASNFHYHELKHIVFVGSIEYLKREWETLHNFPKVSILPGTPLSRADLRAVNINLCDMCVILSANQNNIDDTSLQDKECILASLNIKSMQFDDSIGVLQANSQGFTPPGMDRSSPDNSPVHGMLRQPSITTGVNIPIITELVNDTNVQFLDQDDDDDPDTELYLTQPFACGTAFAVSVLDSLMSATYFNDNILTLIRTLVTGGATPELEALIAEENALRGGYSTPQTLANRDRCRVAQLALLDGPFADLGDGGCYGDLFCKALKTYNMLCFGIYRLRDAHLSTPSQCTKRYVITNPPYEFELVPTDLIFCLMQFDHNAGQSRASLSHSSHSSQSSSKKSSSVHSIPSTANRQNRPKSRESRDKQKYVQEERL
Sequence of human Maxi K channel (BK channel), KCNMA1 (KCa1.1) and beta1 (KCNMB1) subunits (Q16558 whole entry partner): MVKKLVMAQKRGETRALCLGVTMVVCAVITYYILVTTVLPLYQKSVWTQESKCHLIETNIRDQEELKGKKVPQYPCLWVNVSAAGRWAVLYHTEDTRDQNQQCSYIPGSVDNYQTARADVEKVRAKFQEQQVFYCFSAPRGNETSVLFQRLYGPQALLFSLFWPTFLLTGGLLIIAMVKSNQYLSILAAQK

SMILES | EC50 [1] | EC50 [2] | EC50 [3] | inhibition in vivo at 10 mg/kg (Haemonchus contortus)
O=C(NC1COc2ccccc21)c1cnc2c(-c3cccc(Cl)c3)csc2c1N1CCOCC1 (stereo not drawn) [Compound 80] | > 30 µM | < 10 µM |  | 
O=C(Nc1cccc2ccccc12)c1cnc2c(-c3cccc(Cl)c3Cl)csc2c1N1CCOCC1 [Compound 14] | > 30 µM | < 10 µM |  | 
CN1CCN(c2c(C(=O)N[C@H]3CCOc4ccccc43)cnc3c(-c4cccc(Cl)c4Cl)csc23)CC1 [Compound 17] | > 30 µM | < 10 µM | < 10 µM | 
Cc1sc2c(N3CC(F)C3)c(C(=O)N[C@H]3CCOc4ccccc43)cnc2c1-c1cc(Cl)cc(Cl)c1 [Compound 65] | > 30 µM |  |  | ≥ 80%
Cc1sc2c(N3CC(F)(F)C3)c(C(=O)N[C@H]3CCOc4ccccc43)cnc2c1-c1cccc(Cl)c1Cl [Compound 56] | > 30 µM |  |  | ≥ 80%
Cc1sc2c(N3CC(F)C3)c(C(=O)N[C@H]3CCOc4ccccc43)cnc2c1-c1cccc(Cl)c1Cl [Compound 62] | > 30 µM |  |  | ≥ 80%
Cc1sc2c(N(C)C)c(C(=O)N[C@H]3CCOc4ccccc43)cnc2c1-c1cccc(Cl)c1Cl [Compound 36, (S)—N-(chroman-4-yl)-3-(2,3-dichlorophenyl)-7-dimethylamino-2-methylthieno[3,2-b]pyridine-6-carboxamide] | > 30 µM |  |  | ≥ 80%
Cc1sc2c(N(C)C)c(C(=O)N[C@H]3CCOc4ccccc43)cnc2c1-c1cc(Cl)cc(Cl)c1 [Compound 53] | > 30 µM |  |  | ≥ 80%
Cc1sc2c(N3CCOCC3)c(C(=O)N[C@H]3CCOc4ccccc43)cnc2c1-c1cccc(Cl)c1Cl [Compound 72] | > 30 µM |  |  | ≥ 80%
CN(C)c1c(C(=O)N[C@H]2CCOc3ccccc32)cnc2c(-c3cccc(Cl)c3Cl)csc12 [Compound 10] | > 30 µM |  |  | ≥ 80%
